A short description of data set [1]: Saturation solubility of haloperidol in aqueous polymer solutions (HPLC of filtrate). The data set is classed as physicochemical. As for the experimental part:
1.0 g of haloperidol (free base) was added to 100.0 ml of aqueous polymer solution and stirred for 72 h. […] The undissolved amount of haloperidol was filtered off. The content of haloperidol in the filtrate was determined by HPLC.
For comparison, the saturation solubility of haloperidol was determined in demineralized water, as well as in hydrochloric acid. In the latter case, the corresponding haloperidol hydrochloride is formed.

A short description of data set [2]: Saturation solubility of loperamide in aqueous polymer solutions (HPLC of filtrate). The data set is classed as physicochemical. The procedure:
1.0 g of loperamide (free base) was added to 100.0 ml of aqueous polymer solution and stirred for 72 h. […] The undissolved amount of loperamide was filtered off. The content of loperamide in the filtrate was determined by HPLC.
For comparison, the saturation solubility of loperamide was determined in demineralized water, as well as in hydrochloric acid. In the case of the latter, the corresponding loperamide hydrochloride is formed.

As for `O=C(CCCN1CCC(O)(c2ccc(Cl)cc2)CC1)c1ccc(F)cc1` [haloperidol], the “Concentration of dissolved haloperidol” value was 5.2 mg/mL in data set [1] (10% by wt. polymer D in water, stirred 72 h, pH of filtered solution 3.2); 10.3 mg/mL in data set [1] (20% by wt. polymer A in water, stirred 72 h, pH of filtered solution 3.0); 7.7 mg/mL in data set [1] (20% by wt. polymer C in water, stirred 72 h, pH of filtered solution 3.3); 15.1 mg/mL in data set [1] (20% by wt. polymer D in water, stirred 72 h, pH of filtered solution 3.0); below 0.074 mg/mL in data set [1] (20% solution of polymer A plus NaOH to pH 10, pH of filtered solution 10.1); below 0.0178 mg/mL in data set [1] (demineralized water, 0% polymer, stirred 72 h, pH of filtered solution 7.5). The “Concentration of dissolved haloperidol” value in data set [1] (hydrochloric acid 10%, no polymer (haloperidol hydrochloride is formed)) is below 0.0160 mg/mL.

With `CN(C)C(=O)C(CCN1CCC(O)(c2ccc(Cl)cc2)CC1)(c1ccccc1)c1ccccc1` [loperamide], the “Concentration of dissolved loperamide” value was 6.2 mg/mL in data set [2] (10% by wt. polymer A in water, stirred 72 h, pH of filtered solution 2.5); 3.9 mg/mL in data set [2] (10% by wt. polymer B in water, stirred 72 h, pH of filtered solution 2.0); 7.6 mg/mL in data set [2] (20% by wt. polymer A in water, stirred 72 h); 5.9 mg/mL in data set [2] (20% by wt. polymer D in water, stirred 72 h, pH of filtered solution 1.9); below 0.0170 mg/mL in data set [2] (demineralized water, 0% polymer, stirred 72 h); below 0.0149 mg/mL in data set [2] (hydrochloric acid 10%, no polymer (loperamide hydrochloride is formed)).

The values are drawn from patent US20100280047A1, “SALTS OF ACTIVE INGREDIENTS WITH POLYMERIC COUNTER-IONS” (BASF SE, priority 2007, published 2010).
